What all share (experiment): NCI tumour cell line growth inhibition, 48 h
Experiment [1] deals with IGROV1 ovarian.
Experiment [2] relates to COLO 205 colon.
For experiment [3], the system named is MDA-MB-231 breast.
Experiment [4] concerns HS 578T breast.
Experiment [5] has as its system OVCAR-8 ovarian.
Experiment [6] has as its system HCT-116 colon.
Experiment [7] concerns OVCAR-5 ovarian.
In experiment [8] the test system is SK-OV-3 ovarian.
Experiment [9] has as its system U251 CNS.
The test system of experiment [10] is SW-620 colon.

Structures are written as SMILES.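 All cell lines were grown in 96-well plates and treated with compound for 48 hours. GI50 is the concentration that inhibits growth by half. The concentration for full growth arrest is given as TGI.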 Bounds are passed on as bounds.

With `CN(C)C/C=C/C(=O)Nc1cc2c(Nc3cccc(Cl)c3F)ncnc2cc1OCCOC(F)F`, the GI50 in experiment [1] was less than 0.0142 µM; in experiment [2], 1.69 µM; in experiment [3], 1.09 µM; in experiment [4], 1.46 µM; in [5], 1.11 µM; in [6], 1.87 µM. For the same molecule, the GI50 in experiment [7] is 0.371 µM; in experiment [8], less than 0.01 µM; in [9], 2.39 µM; in experiment [10], 2.05 µM. Besides, the TGI in experiment [1] turned out to be 1.07 µM; in [2] it was 6.35 µM; in experiment [3] it was 7.78 µM; in [4], 7.02 µM; in experiment [5], 12.4 µM; in [6], 11 µM. Also, the TGI in [7] came out at 15.1 µM; in experiment [8], 0.275 µM; in experiment [9], 12.1 µM; in experiment [10], 11.6 µM.
For `OCC1OC(n2cnc3c(NCc4ccccc4O)ncnc32)C(O)C1O` (stereo not given), the GI50 in experiment [1] is 0.649 µM; in [2], 0.524 µM; in experiment [3] it was 0.0769 µM; in experiment [4], 1.96 µM; in [5], 0.225 µM; in [6], 0.131 µM. Besides, the GI50 is 1.15 µM in experiment [7], 0.627 µM in experiment [8], 1.16 µM in experiment [9] and 0.291 µM in experiment [10]. Moreover, the TGI in experiment [1] is 10.5 µM; in experiment [2], greater than 24.4 µM; in experiment [3] it was 3.28 µM; in experiment [4], greater than 58.6 µM; in [5], 8.09 µM; in [6], 3.4 µM. Further, the TGI in experiment [7] was greater than 67.1 µM; in experiment [8], 26.1 µM; in [9], greater than 100 µM; in [10], greater than 33.9 µM.
`Oc1cc(O)c2c(c1)OC(c1ccc(O)c(O)c1)C(O)C2c1c(O)cc(O)c2c1OC(c1ccc(O)c(O)c1)C(O)C2` (stereo not given): the TGI in [1], in experiment [2], in [3], in experiment [4], in experiment [5] and in experiment [6] was greater than 100 µM throughout. Moreover, the TGI in experiment [7], in [8], in experiment [9] and in [10] was greater than 100 µM each time.
Regarding `C/C(=N\NC(=S)N1CCN(c2ccccn2)CC1)c1cccc2cccnc12`, the TGI was greater than 100 µM in experiment [1]; greater than 46.1 µM in experiment [2]; greater than 64.6 µM in experiment [3]; greater than 100 µM in [4]; greater than 100 µM in experiment [5]; 6.71 µM in experiment [6]. Further, the TGI in [7] was greater than 60.1 µM; in experiment [8] it was 43.5 µM; in experiment [9], greater than 29.7 µM; in experiment [10], greater than 100 µM.
On to `COc1ccc(NC(=O)c2cccc(C3CCc4c(cc(OC)c(OC)c4OC)O3)c2)cc1` (stereo not given), for which the GI50 in experiment [1] was 4.96 µM; in experiment [2], 2.39 µM; in experiment [3], 4.13 µM; in experiment [4], 2.69 µM; in experiment [5], 3.1 µM; in experiment [6] it was 3.65 µM. The GI50 in experiment [7] is 6.46 µM; in [8], 3.54 µM; in [9], 3.4 µM; in experiment [10], 4.45 µM. Also, the TGI in experiment [1] is greater than 100 µM; in [2], 6.67 µM; in experiment [3], greater than 100 µM; in experiment [4], greater than 100 µM; in experiment [5], greater than 100 µM; in [6], greater than 100 µM. Also, the TGI in experiment [7], in experiment [8], in experiment [9] and in experiment [10] was greater than 100 µM each time.
In the case of `COc1ccc2nc3ccccc3c(NCc3ccccc3)c2c1`, the GI50 is 2.34 µM in [1]; 1.54 µM in experiment [2]; 1.85 µM in experiment [3]; 2.19 µM in experiment [4]; 2.76 µM in experiment [5]; 1.72 µM in experiment [6]. The GI50 is 2.25 µM in experiment [7], 2.45 µM in experiment [8], 2.71 µM in experiment [9] and 1.72 µM in experiment [10]. Besides, the TGI in [1] came out at 6.66 µM; in experiment [2], 3.54 µM; in experiment [3], 4.38 µM; in experiment [4] it was 5.57 µM; in experiment [5], 9.32 µM; in experiment [6], 5.25 µM. Moreover, the TGI was 7.35 µM in [7], 9.08 µM in experiment [8], 8.34 µM in experiment [9] and 4.68 µM in experiment [10].
As to `O=C(O)c1cc(Cl)cc(Cc2cc(Cl)cc(C(=O)O)c2O)c1O`, the TGI in experiment [1], in [2], in experiment [3], in experiment [4], in [5] and in experiment [6] was greater than 100 µM each time. Also, the TGI in experiment [7], in experiment [8], in experiment [9] and in experiment [10] was greater than 100 µM each time.
For the molecule `Cc1cn(C2CC(O)C(COC(N)=O)O2)c(=O)[nH]c1=O` (stereo not given), the TGI in experiment [1], in [2], in [3], in experiment [4], in [5] and in [6] was greater than 100 µM in each case. Moreover, the TGI in experiment [7], in experiment [8], in experiment [9] and in [10] was greater than 100 µM throughout.
As for `Nc1no[n+]([O-])c1-c1nnc2c(n1)-c1ccccc1C2=O`, the GI50 in [1] is 3.02 µM; in experiment [2], 1.93 µM; in experiment [3] it was 2.89 µM; in experiment [4] it was 5.58 µM; in experiment [5], 3.19 µM; in experiment [6], 1.38 µM. Further, the GI50 in experiment [7] was 1.88 µM; in experiment [8], 16.2 µM; in [9] it was 3.76 µM; in experiment [10] it was 1.83 µM. Besides, the TGI came to 11.7 µM in experiment [1]; 4.35 µM in experiment [2]; 9.4 µM in [3]; 65 µM in experiment [4]; 10.4 µM in experiment [5]; 3.62 µM in experiment [6]. The TGI stood at 3.77 µM in experiment [7], 51.5 µM in experiment [8], 13.7 µM in [9] and 3.65 µM in experiment [10].
